{"source": "patent US20230381774A1", "about": "“MICROFLUDIC LAB-ON-CHIP DEVICE, MATRIX, SMALL MOLECULES AND THREE-DIMENSIONAL SPHEROIDS FOR CELL REPROGRAMMING” (The Regents of the University of California, priority 2022, published 2023)", "type_in_all_cases": "cell-based, mouse", "key": {"[1]": {"test_system": "BAM-transduced fibroblasts", "assay": "iN reprogramming of BAM-transduced fibroblasts with cytoskeletal and adhesion inhibitors (TUBB3+ iN cells, 2 weeks)", "settings": "for dose response of reprogramming efficiency: varying concentrations", "method": "To examine whether these changes in cell stiffness, actin structure and expression of contractility-mediating genes were involved in iN reprogramming, we evaluated the effects of disrupting the cytoskeleton using small molecule inhibitors. For these experiments, BAM-transduced fibroblasts were reprogrammed as in FIG. 1A and chemical compounds known to perturb the cytoskeleton were added to the culture medium on day 1 to evaluate their effects on the reprogramming process. […] The reprogramming efficiency was determined as the percentage of TUBB3*-iN cells normalized to the number of cells plated at 24 hours post-seeding (i.e., day 0). First, we tested whether disruption of cytoskeletal contractility could influence the direct reprogramming of fibroblasts into neurons using blebbistatin, a non-muscle myosin II inhibitor^22-24. We observed that iN cells could be derived in the absence and presence of blebbistatin (FIG. 3A). […] In particular, treatment with 10 μM blebbistatin generated the highest number of iN cells and increased the reprogramming efficiency by approximately 4.5-fold compared to the control, therefore, this concentration was used in all subsequent experiments. […] As Ascl1 has been identified as a pioneer factor for iN reprogramming and transduction of Ascl1 alone is sufficient to generate iN cells^25,26, we further investigated whether blebbistatin could influence iN conversion by Ascl1 induction.\nAfter transduction, mouse fibroblasts were seeded onto multi-well tissue culture-treated polystyrene dishes (Falcon) coated with laminin (0.1 mg/ml, Corning) at 4,000 cells per cm^2. Twenty-four hours after seeding, the medium was replaced to MEF medium containing doxycycline (2 μg/ml, Sigma). The following day (i.e., day 1) the medium was changed to N3 medium (DMEM/F12 [GIBCO]+N2 supplement [Invitrogen]+B27 supplement [Invitrogen]+1% penicillin/streptomycin [Gibco]+ doxycycline [2 μg/ml, Sigma]) and the cultures were maintained in this medium for the duration of the experiments. For Ascl1-only reprogramming, N3 medium was further supplemented with BDNF (5 ng/ml, R&D systems) and GDNF (5 ng/ml, R&D systems) after day 7. For cytoskeletal and cell adhesion disruptions, Blebbistatin (Millipore), Y-27632 (20 μM; Cayman Chemical), Nocodazole (0.3 μM; Sigma), Cytochalasin D (1 μM; Sigma), Jasplakinolide (0.05 μM; Cayman Chemical) and PF573228 (Sigma) were administered in N3 medium on day 1 and for the first 7 days of reprogramming (unless stated otherwise) and used at the indicated concentrations. Culture medium was replenished every 2 days during reprogramming to maintain the activity of the small molecules. After culturing for the desired length (14 days for BAM and 21 days for Ascl1 only), the induced neuronal (iN) cells were analyzed and the reprogramming efficiency was determined.\nThe reprogramming efficiency was determined by as the percentage of TUBB3^+ iN cells in each condition normalized to the number of cells plated at 24 hours post-seeding. Epifluorescence images were collected using a Zeiss Axio Observer.D1, Zeiss Axio Observer.Z1, and ImageXpress Micro XLS System (Molecular Devices), whereas confocal images were acquired using a Zeiss LSM710 microscope and Leica SP8 Confocal Laser Scanning microscope."}, "[2]": {"test_system": "iN cells", "assay": "Immunostaining of mature neuronal markers in iN cells", "settings": "iN cells derived in presence of inhibitor", "method": "For immunostaining, cells were fixed with 4% paraformaldehyde (Electron Microscopy Sciences), permeabilized with 0.5% Triton-X-100 (Sigma), and blocked with 5% donkey serum (Jackson Immunoresearch) in phosphate buffered saline (PBS). For actin-cytoskeleton staining, samples were incubated with fluorescein isothiocyanate-conjugated phalloidin (Invitrogen) for 1 hour. Primary antibodies were incubated for 1 hour at room temperature or overnight at 4° C., followed by 1-hour incubation with Alexa 488 and/or Alexa 546-labeled secondary antibodies (Molecular Probes). Nuclei were stained with 4,6-diamino-2-phenylindole (DAPI) (Invitrogen)."}, "[3]": {"test_system": "histone deacetylase (HDAC)", "assay": "HDAC activity assay on nuclear extracts of treated fibroblasts", "settings": "10 μM blebbistatin or 5 μM PF573228, 2 hours, vs DMSO", "method": "Nuclear protein extractions were isolated from 5×10^5 fibroblasts treated with vehicle control (DMSO), 10 μM blebbistatin or 5 μM PF573228 for 2 hours using a nuclear extraction kit (EpiGentek, OP-0002), in accordance with the manufacturer's instructions. HAT, HDAC, H3K4 HMT, H3K4 HDM and DNMT activity were measured using the HAT activity/inhibition assay (EpiGentek, P-4003-048), HDAC activity/inhibition assay (EpiGentek, P-4034-096), Histone methyltransferase (H3K4 specific) activity/inhibition assay (EpiGentek, P-3002-1), Histone Demethylase (H3K4 specific) activity/inhibition assay (EpiGentek, P-3074-48), and DNMT activity/inhibition assay (EpiGentek, P-3009-048), respectively. Per the manufacturer's instructions, 20 μg of nuclear extract was added into the assay wells and incubated at 37° C. for 90 minutes. After adding the color developer solution, the absorbance was measured using a plate reader (Infinite […], 30050303) at 450 nm for all the assays with the exception of the Histone Demethylase (H3K4 specific) activity/inhibition assay where we measured the fluorescence using a fluorescence microplate reader at 530 EX/590 EM nm."}, "[4]": {"test_system": "5-methylcytosine (5-mC)", "assay": "Global DNA methylation (5-mC) assay", "settings": "non-transduced fibroblasts, 24 hours, vs control", "method": "DNA was isolated from non-transduced fibroblasts treated with vehicle control (DMSO), 10 μM blebbistatin and 5 μM PF573228, respectively, for 24 hours using the PureLink Genomic DNA mini kit (Invitrogen) according to the manufacturer's instructions. To detect global DNA methylation (5-mC) levels in the samples, we utilized the MethylFlash Global DNA Methylation (5-mC) ELISA Easy kit (Epigentek) according to the manufacturer's protocol. 100 ng of DNA sample was utilized per reaction and after adding the color developer solution, the absorbance was measured using a plate reader (Infinite […], 30050303) at 450 nm."}}, "note": "Entries after “also recorded” stand apart in the source; their conditions may differ.", "data": [{"compound": "CS(=O)(=O)c1cccc(CNc2nc(Nc3ccc4c(c3)CCC(=O)N4)ncc2C(F)(F)F)c1", "note": "[PF573228]", "values": [{"measurement": "dose response of reprogramming efficiency", "setting": "[1]", "result": "significantly increased the reprogramming efficiency in a biphasic manner; also recorded: promoted iN reprogramming in a biphasic manner"}, {"measurement": "mature neuronal marker expression of derived iN cells", "setting": "[2]", "result": "expressed neuronal markers, including NeuN, MAP2, and synapsin; also recorded: displaying a typical neuronal morphology and co-expressing mature neuronal markers, NeuN, MAP2 and synapsin"}, {"measurement": "HDAC activity", "setting": "[3]", "result": "differences"}, {"measurement": "DNA methylation (5-mC)", "setting": "[4]", "result": "lower levels of DNA methylation"}]}, {"compound": "Cc1ccc2c(c1)C(=O)C1(O)CCN(c3ccccc3)C1=N2", "note": "(stereo not shown) [blebbistatin]", "values": [{"measurement": "concentration generating the highest number of iN cells", "setting": "[1]", "result": 10, "unit": "µM"}, {"measurement": "time course of TUBB3+ iN cell generation", "setting": "[1]; as early as day 5", "result": "led to more efficient generation of TUBB3^+ iN cells than the control"}, {"measurement": "phase of reprogramming in which treatment is effective", "setting": "[1]; early days 1-5, mid days 5-9, late days 9-13, 10 μM", "result": "most crucial during the early phase of reprogramming"}, {"measurement": "reprogramming efficiency in Tau-EGFP fibroblasts", "setting": "[1]; mouse fibroblasts isolated from Tau-EGFP mice", "result": "enhanced reprogramming efficiency by blebbistatin was also confirmed"}, {"measurement": "length of treatment sufficient to enhance reprogramming efficiency", "setting": "[1]; treatment over timescales of 1 to 14 days", "result": 3, "unit": "days"}, {"measurement": "dose response of reprogramming efficiency", "setting": "[1]", "result": "biphasic dose response"}, {"measurement": "mature neuronal marker expression of derived iN cells", "setting": "[2]", "result": "expressed NeuN, microtubule-associated protein 2 (MAP2), and synapsin"}, {"measurement": "HDAC activity", "setting": "[3]", "result": "reducing"}, {"measurement": "DNA methylation (5-mC)", "setting": "[4]", "result": "a decrease in the abundance of DNA methylation marker, 5-methylcytosine (5-mC)"}]}]}
